{"source": "the SangsterLogP compilation"}
{"compound": "CCN1C(=O)C(=O)c2cc(OC)c(OC)cc2C1=O", "logP": 1.31}
{"compound": "CCOC(=O)c1cccc2c1C(=O)C(=O)N(CC)C2=O", "logP": 1.31}
{"compound": "CCN1C(=O)C(=O)c2cccc(OC)c2C1=O", "logP": 0.94}
{"compound": "CCCCN1C(=O)C(=O)c2ccccc2C1=O", "logP": 2.18}
{"compound": "CCN1C(=O)C(=O)c2ccc(OC)cc2C1=O", "logP": 1.49}
{"compound": "CCN1C(=O)C(=O)c2c(OC)cc(OC)cc2C1=O", "logP": 1.23}
{"compound": "CCN1C(=O)C(=O)c2c(C(N)=O)cccc2C1=O", "logP": -0.5}
{"compound": "CCN1C(=O)C(=O)c2ccccc2C1=O", "logP": 1.13}
{"compound": "CCNC(=O)c1cccc2c1C(=O)C(=O)N(CC)C2=O", "logP": 0.3}
{"compound": "CCN1C(=O)C(=O)c2c(Cl)cccc2C1=O", "logP": 1.43}
{"compound": "CC(C)N1C(=O)C(=O)c2ccccc2C1=O", "logP": 1.6}
{"compound": "CCN(CC)C(=O)c1cccc2c1C(=O)C(=O)N(CC)C2=O", "logP": 0.78}
{"compound": "CCN1C(=O)C(=O)c2cc3ccccc3cc2C1=O", "logP": 2.46}
{"compound": "CCC(C)N1C(=O)C(=O)c2ccccc2C1=O", "note": "(configuration not stated)", "logP": 2.15}
{"compound": "CC(C)CN1C(=O)C(=O)c2ccccc2C1=O", "logP": 2.08}
{"compound": "CCN1C(=O)C(=O)c2c(cccc2[N+](=O)[O-])C1=O", "logP": 0.82}
{"compound": "O=C1C(=O)N(c2ccccc2)C(=O)c2ccccc21", "logP": 1.14}
{"compound": "CCN1C(=O)C(=O)c2c(C#N)cccc2C1=O", "logP": 0.41}
{"compound": "CCN1C(=O)C(=O)c2c(OC)cccc2C1=O", "logP": 0.9}
{"compound": "CCN1C(=O)C(=O)c2ccc(Cl)cc2C1=O", "logP": 1.79}
{"compound": "CCCN1C(=O)C(=O)c2ccccc2C1=O", "logP": 1.6}
{"compound": "CN1C(=O)C(=O)c2ccccc2C1=O", "logP": 0.6}
